Laboratory results as given in patent US7387895B2, “Monoclonal antibody specific for PPAR gamma, hydridoma cell line producing the same, and method for detecting regulator related to diseases, including inflammation, cancer and metabolic diseases, using the same” (Korea Research Institute of Bioscience and Biotechnology, priority 2003, dated 2008).
“Also recorded” adds a separate entry of the source.

Legend:
[1] = biological target: T1, PPAR gamma (Homo sapiens, UniProt P37231); settings: components of oxLDL; cited from earlier work
T1 sequence (P37231 1-505): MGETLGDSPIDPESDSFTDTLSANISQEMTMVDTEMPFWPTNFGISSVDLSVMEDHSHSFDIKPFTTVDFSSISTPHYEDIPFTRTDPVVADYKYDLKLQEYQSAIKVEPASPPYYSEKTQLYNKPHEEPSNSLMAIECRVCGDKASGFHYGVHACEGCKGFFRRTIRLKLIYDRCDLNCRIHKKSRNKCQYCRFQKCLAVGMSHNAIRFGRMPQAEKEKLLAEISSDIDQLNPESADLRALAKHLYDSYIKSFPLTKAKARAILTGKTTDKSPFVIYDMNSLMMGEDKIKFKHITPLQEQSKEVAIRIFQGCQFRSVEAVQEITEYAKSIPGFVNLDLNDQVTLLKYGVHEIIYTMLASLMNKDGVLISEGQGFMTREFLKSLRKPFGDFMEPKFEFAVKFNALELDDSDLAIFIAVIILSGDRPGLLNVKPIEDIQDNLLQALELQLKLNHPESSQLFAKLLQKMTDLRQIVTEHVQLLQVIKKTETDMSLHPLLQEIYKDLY

[2] = system: cytokine production; settings: cited from earlier work
[3] = system: NF-κB; settings: cited from earlier work
[4] = biological target: T2, binding between SRC-1 and PPAR gamma2 proteins (Homo sapiens, UniProt P37231); assay: ELISA of binding between SRC-1 and PPAR gamma2; format: biochemical; settings: 8 μg/ml SRC-1 coated, GST-PPAR gamma2 lysate diluted 64-fold, ligand at different concentrations, FIG. 7B
T2 construct: made in house; host or cells: E. coli (pGEX4T-1/PPARgamma2, KCTC 10190BP; pET28a/SRC-1, KCTC 10191BP)
T2 sequence (Q15788 whole entry partner, one chain of several): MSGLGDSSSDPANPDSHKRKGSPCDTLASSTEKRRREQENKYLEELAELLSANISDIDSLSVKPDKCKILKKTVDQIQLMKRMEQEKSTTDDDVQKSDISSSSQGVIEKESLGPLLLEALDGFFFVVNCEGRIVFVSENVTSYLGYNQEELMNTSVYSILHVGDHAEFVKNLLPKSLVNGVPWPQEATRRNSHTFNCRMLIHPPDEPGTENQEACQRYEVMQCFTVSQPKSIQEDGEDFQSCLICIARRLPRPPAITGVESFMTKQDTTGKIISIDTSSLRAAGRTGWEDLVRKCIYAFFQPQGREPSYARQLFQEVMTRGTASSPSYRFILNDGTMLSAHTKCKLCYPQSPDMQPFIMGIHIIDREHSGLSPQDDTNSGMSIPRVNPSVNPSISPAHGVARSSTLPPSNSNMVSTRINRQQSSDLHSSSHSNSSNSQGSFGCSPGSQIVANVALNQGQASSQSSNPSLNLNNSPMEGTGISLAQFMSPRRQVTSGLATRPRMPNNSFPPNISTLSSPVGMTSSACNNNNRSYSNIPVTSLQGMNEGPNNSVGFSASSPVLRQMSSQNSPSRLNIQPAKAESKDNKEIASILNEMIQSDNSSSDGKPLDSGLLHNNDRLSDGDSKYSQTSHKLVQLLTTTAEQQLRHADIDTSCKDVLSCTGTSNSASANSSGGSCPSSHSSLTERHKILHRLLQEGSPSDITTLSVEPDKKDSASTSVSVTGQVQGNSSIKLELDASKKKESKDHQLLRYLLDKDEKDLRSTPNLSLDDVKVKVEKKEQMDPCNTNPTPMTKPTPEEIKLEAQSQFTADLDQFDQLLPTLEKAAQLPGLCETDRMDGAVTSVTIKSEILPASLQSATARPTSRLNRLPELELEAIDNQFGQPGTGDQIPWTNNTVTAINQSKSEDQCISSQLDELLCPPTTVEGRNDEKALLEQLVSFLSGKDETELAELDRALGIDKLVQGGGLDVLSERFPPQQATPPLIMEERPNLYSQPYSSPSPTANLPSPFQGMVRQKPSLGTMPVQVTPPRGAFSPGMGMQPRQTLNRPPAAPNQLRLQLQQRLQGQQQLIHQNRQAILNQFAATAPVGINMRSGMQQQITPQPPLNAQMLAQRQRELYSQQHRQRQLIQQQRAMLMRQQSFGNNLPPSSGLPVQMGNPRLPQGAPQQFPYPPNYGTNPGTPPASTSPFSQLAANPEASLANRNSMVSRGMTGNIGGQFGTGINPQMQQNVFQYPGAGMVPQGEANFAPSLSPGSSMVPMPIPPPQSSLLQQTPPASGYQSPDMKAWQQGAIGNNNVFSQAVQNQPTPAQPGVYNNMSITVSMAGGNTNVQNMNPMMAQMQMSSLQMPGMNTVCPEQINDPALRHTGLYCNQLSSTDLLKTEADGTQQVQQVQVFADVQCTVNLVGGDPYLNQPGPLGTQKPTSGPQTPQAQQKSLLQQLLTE
Method: To examine the effect of PPAR gamma2 protein concentration on the binding between SRC-1 and PPAR gamma2 proteins, the following test was conducted. […] Also, this procedure was repeated three times, and a GST-fused protein which had not been bound to SRC-1 protein was used as a control group. […] Furthermore, to examine the effect of PPAR gamma2 ligand concentration on the binding between SRC-1 and PPAR gamma2 proteins, the following test was conducted. 8 μg/ml SRC-1 was coated on a plate, and E. coli lysate was diluted 64-fold and added to the plate. Then, indomethacin, a PPAR gamma2 ligand, was added to the plate at a different concentration.
His-SRC-1 protein was diluted with 0.1 M sodium carbonate buffer (pH 9.6) to a concentration of about 800 ng/well. 100 μl of the protein dilution was loaded into each well of an ELISA plate, and coated on the plate overnight at 4° C. The coated plate was washed three times with PBS (containing 0.05% Tween®-20), and added with 3% skimmed-PBST solution and left to stand overnight at 4° C. or for 2 hours at room temperature. A soluble fraction of GST-fused PPAR gamma2 was diluted […], and 50 μl of the dilution was added to each well of the plate. Indomethacin, a PPAR gamma2 agonist, was added at 1 μM, 10 μM and 100 μM. […]

In the case of `CCCCC/C=C\C=C\C(O)CCCCCCCC(=O)O` (stereo not drawn) [9-HODE], the “PPAR gamma agonist activity” value [1] is listed as “PPAR gamma agonists”.
For `CCCCCC(O)/C=C/C=C\CCCCCCCC(=O)O` (stereo not drawn) [13-HODE], the “PPAR gamma agonist activity” value [1] is listed as “PPAR gamma agonists”.
For `CCCCC/C=C/C=C1/C(=O)C=C[C@@H]1C/C=C\CCCC(=O)O` [15d-PGJ2], the “cytokine production in embryonic stem cells” value ([2]; PPAR gamma+/+, +/- or -/- embryonic stem cells) is given as “inhibited cytokine production”, the “cytokine production of monocytes or macrophages in vitro” value ([2]; monocytes or macrophages) is given as “the most powerful inhibitor” and the NF-κB activity [3] is given as “inhibit NF-κB activity”.
In the case of `COc1ccc2c(c1)c(CC(=O)O)c(C)n2C(=O)c1ccc(Cl)cc1` [indomethacin], the “binding between SRC-1 and PPAR gamma2” value [4] is reported as “dependent on the concentration of indomethacin; also recorded: increased”.
